# Assay: Screening of salts of the compound with counter ion acids
# Format: physicochemical
# Conditions: for Results (salt screening): acetone 0.2 mL, solid-liquid reaction, room temperature; for Results (salt screening) / Post-treatment (salt screening): base:acid=1:1.2; for Experimental results (salt screening): natural evaporation at room temperature; for Post-treatment (salt screening): suspended in 0.2 mL of methanol at 50° C.
# Description: 300 mg of free base was weighed, 15 mL of THE was added, and the mixture was heated to 50° C. to dissolve completely. The solution of the free base in THE was divided into […], and a certain amount of acid was added to each part (molar reaction ratio of base:acid=1:1.2), detailed as follows:
# 20 mg of free base was weighed, 0.2 mL of acetone was added, and the mixture was stirred and suspended at room temperature. Acid (molar reaction ratio of base:acid=1:1.2) was added to the suspension system for reaction, detailed as follows: […]
# 20 mg of free base was weighed, 0.2 mL of methanol was added, and the mixture was stirred and suspended at 50° C. Acid (molar reaction ratio of base:acid=1:1.2) was added to the suspension system for reaction, detailed as follows:
# THF was used as solvent in No. 1 to 10, and the free base was dissolved in THE to form a clear solution and then acid was added. Ethanol was used as solvent in No. 11 to 14, the free base was suspended in ethanol, and a clear solution formed after adding an acid. The clear solution formed in No. 1-14 was placed at room temperature without sealing the container to evaporate the solvent.
# [1] = acid: 1M oxalic acid in ethanol
# [2] = acid: 1M phosphoric acid in ethanol
smiles,measurement,setting,value
"C[C@H](Nc1ccc2c(c1)OCCn1cc(N3C(=O)SC[C@H]3C(F)F)nc1-2)C(N)=O [Example 22, (S)-2-((2-((R)-4-(difluoromethyl)-2-oxothiazolidin-3-yl)-5,6-dihydrobenzo[f]imidazo[1,2-d][1,4]oxazepin-9-yl)amino)propionamide]",Results (salt screening),acid: 1M maleic acid in ethanol,"No reaction, free base remained"
same,Results (salt screening),acid: 1M methanesulfonic acid in ethanol,Mesylate was obtained
same,Results (salt screening),[1],"No reaction, free base remained"
same,Results (salt screening),[2],"No reaction, free base remained"
same,Experimental results (salt screening),"THF as solvent, acid: Adipic acid",Oil formed
same,Experimental results (salt screening),"THF as solvent, acid: Citric acid",Oil formed
same,Experimental results (salt screening),"THF as solvent, acid: Fumaric acid",Oil formed
same,Experimental results (salt screening),"THF as solvent, acid: Glycolic acid",Oil formed
same,Experimental results (salt screening),"THF as solvent, acid: Maleic acid",Oil formed
same,Experimental results (salt screening),"THF as solvent, acid: Malic acid",Oil formed
same,Experimental results (salt screening),"THF as solvent, acid: Oxalic acid",Oil formed
same,Experimental results (salt screening),"THF as solvent, acid: Phosphoric acid",Oil formed
same,Experimental results (salt screening),"THF as solvent, acid: Succinic acid",Oil formed
same,Experimental results (salt screening),"THF as solvent, acid: Tartaric acid",Oil formed
same,Experimental results (salt screening),"ethanol as solvent, acid: Benzenesulfonic acid",Amorphous
same,Experimental results (salt screening),"ethanol as solvent, acid: Hydrochloric acid",Amorphous
same,Experimental results (salt screening),"ethanol as solvent, acid: Isethionic acid",Amorphous
same,Experimental results (salt screening),"ethanol as solvent, acid: p-Toluenesulfonic acid",Amorphous
same,Post-treatment (salt screening),acid: 1M maleic acid in methanol,"No reaction, free base remained"
same,Post-treatment (salt screening),[1],"No reaction, free base remained"
same,Post-treatment (salt screening),[2],"No reaction, free base remained"
